Laboratory results from patent US10729690B2, “Antihelminthic medications for pathogenic nematodes” (priority 2016, dated 2020).
Entries after “also recorded” stand apart in the source; their conditions may differ.

What was measured:
nematodes = assay: Nematode killing by UPR inducers combined with immunostimulatory molecules; type: in vivo
Source text: In one embodiment, the present invention contemplates a method comprising administering small molecules having clinical antihelminthic efficacy by inducing an unfolded protein response (UPR) in endoplasmic reticulum. In one embodiment, the unfolded endoplasmic reticulum protein response is mediated by small molecules including, but not limited to, tunicamycin and bortezomib (Velcade®). […] See, FIG. 4C. Although it is not necessary to understand the mechanism of an invention, it is believed that components of the nematode UPR are strongly conserved and thus UPR inducers will have dose-limiting toxicity in mammals.
Nematocidal activity of different combinations of these molecules and known anti-helminthics (e.g. ivermectin and albendazole) can be tested to identify those that have synergistic activity. For example, antihelminthic efficacy of chemical inducers of the UPR (e.g. tunicamycin) can be used.

[1] = system: p38 MAPK PMK-1-dependent antimicrobial immune effectors; details: nanoString codeset of 118 genes; previous study (Pukkila-Worley 2014); cited from earlier work
[2] = system: p38 MAPK PMK-1-dependent antimicrobial immune effectors; type: in vivo, C. elegans; details: qRT-PCR
[3] = system: C. elegans genome (immune and detoxification gene transcription); assay: Transcriptome profiles of wild-type nematodes (Affymetrix whole genome genechips); type: in vivo
Description: The effects of R24 on C. elegans was further characterized by generating transcriptome profiles of wild-type nematodes following exposure to either 70 μM R24 or the solvent control DMSO using Affymetrix whole genome […] induced a remarkably robust transcriptional response that involved only a small fraction ( 1.3%) of the genes of the C. elegans genome. […] For example, seventy (70) of the two hundred sixty-nine (269) […]. aeruginosa using a previously described gene set. Troemel et al., (2006).

[4] = system: P. aeruginosa infection of C. elegans; assay: "Slow killing" P. aeruginosa infection (pathogenesis) assay in C. elegans; type: in vivo
C. elegans [5] = assay: C. elegans survival in the absence of pathogen; type: in vivo
Source text: (§1) In reports describing the anti-infective, immunostimulatory xenobiotic R24 it was noted that this compound was toxic to nematodes growing in the absence of pathogen. Pukkila-Worley et al., (2012). […] FIG. 4A. […] FIG. 4B.

[6] = system: C. elegans genome (immune and detoxification gene transcription); details: previously observed; not dependent on p38 MAPK PMK-1 pathway; cited from earlier work
P. aeruginosa = assay: In vitro P. aeruginosa growth assay in the absence of C. elegans; type: cell-based
C. elegans [7] = assay: C. elegans brood size; type: in vivo; details: absence of pathogen
Source text: as §1

[8] = system: F08G5.6::GFP (p38 MAPK PMK-1 pathway-dependent immune effector reporter); assay: F08G5.6::GFP immune transcriptional reporter in C. elegans; type: in vivo

| Compound | killing of nematodes in combination with immunostimulatory molecules (nematodes) | number of codeset genes whose induction by R24 was dependent on the p38 MAPK PMK-1 [1] | antimicrobial immune effectors induced by R24 in wild-type that pmk-1(km25) mutants failed to upregulate [2] | number of the 269 R24-induced genes activated during infection with P. aeruginosa ([3]; 70 μM R24, overlap P<2.7×10^−16) | number of genes induced more than 50-fold ([3]; 70 μM R24 vs DMSO) | number of genes upregulated three-fold or greater ([3]; 70 μM R24 vs DMSO, P<0.025) | fraction of the genes of the C. elegans genome involved in the transcriptional response ([3]; 70 μM R24 vs solvent control DMSO, wild-type) | ability of R24 to prolong lifespan of C. elegans with mutations in four other p38 MAP kinase pathway components ([4]; p38 MAP kinase pathway mutants, data not shown) | R24-mediated lifespan prolongation of pmk-1(km25) null mutants infected with P. aeruginosa, compared to compound-treated wild-type ([4]; pmk-1(km25) null mutants, P<0.001) | C. elegans survival during P. aeruginosa bacterial infection ([4]; wild-type C. elegans) | C. elegans survival (C. elegans [5]) | induction of detoxification genes/enzymes (CYPs, GSTs, UDPs) [6] | growth of P. aeruginosa in an in vitro assay (P. aeruginosa) | brood sizes of nematodes exposed from the first larval stage (C. elegans [7]) | F08G5.6::GFP expression in nsy-1(ums8) mutant exposed to R24, compared to untreated nsy-1(ums8) animals ([8]; nsy-1(ums8) gain-of-function mutant, 70 μM R24 (FIG. 11B)) | F08G5.6::GFP transgene expression ([8]; uninfected nematodes) |
| --- | --- | --- | --- | --- | --- | --- | --- | --- | --- | --- | --- | --- | --- | --- | --- | --- |
| tunicamycin | act synergistically | – | – | – | – | – | – | – | – | – | – | – | – | – | – | – |
| Cc1ccc(Nc2nc(N)c3ccccc3n2)cc1Cl [R24] | – | 13 genes | six of ten | 70 genes | 125 genes | 269 genes | ~1.3% | dramatically attenuated | Lack of improved survivability; also recorded: significantly decreased | dose-dependent improvement; also recorded: Improved survivability; also recorded: protects | dose dependent shortening | robust induction; also recorded: causes the induction | lack of effect; also recorded: did not have any effect | dramatically smaller | markedly increased | strongly induced |
| CC(C)C[C@H](NC(=O)[C@H](Cc1ccccc1)NC(=O)c1cnccn1)B(O)O [bortezomib] | act synergistically | – | – | – | – | – | – | – | – | – | – | – | – | – | – | – |
